Measured values from patent publication US9029076B2, “Tissue preservation and fixation method” (George Mason Research Foundation, Inc., priority 2006, dated 2015).

Assays:
Experiment in all cases: RPA phosphoprotein level after 24 h storage of tumor needle samples in preservatives
Conditions in all cases: 24 h in preservative at 4° C., relative normalized RPA intensity
AKT Thr308 = system: AKT Thr308
Experimental: (§1) The RPA format, originated by the present inventors and collaborators (see, e.g., Paweletz et al. (2001) Oncogene 20, 1981-1989), immobilizes an individual test sample in a miniature dilution curve such that an array contains hundreds of different patient samples, treatments, or time points. In the RPA format, each array is incubated with one detection protein (e.g. anti-peptide antibody), and a single analyte endpoint is measured and directly compared across multiple samples. Briefly, the lysates are printed on glass backed nitrocellulose array slides (FAST Slides Whatman, Florham Park, N.J. or ONCYTE slides Grace BioLabs, Bend, Oreg.) using a robotic array printing device (GMS 417 arrayer (Affymetrix, Santa Clara, Calif. or Aushon 2470, Aushon Biosystems, Burlington, Mass. equipped with 125-500 μm pins). Each lysate is printed in a dilution curve representing neat, 1:2, 1:4, 1:8, 1:16 and negative control dilutions. The slides are stored with desiccant (Drierite, W. A. Hammond, Xenia, Ohio) at −20° C. prior to immunostaining.
(§2) Immunostaining is performed on an automated slide stainer per manufacturer's instructions (Autostainer CSA kit, Dako, Carpinteria, Calif.). Each slide is incubated with a single primary antibody at room temperature for 30 minutes. Polyclonal primary antibodies can be, e.g.: GSK3α/β Tyr279/216 (Invitrogen-Biosource, Carlsbad, Calif.), BCL-2, HIF-1α (BD, Franklin Lakes, N.J.), 4EBP1, FKHR ser256, eIF4E, eIF4E ser209, eIF4G, eIF4G ser1108, IGFR-β, IRS-1, IRS-2, IRS-1 ser612, SGK, Bak, Bax, BAD, BAD ser112, BAD ser136, BAD ser155, B-Raf, mTOR, mTOR ser2448, p70S6 Thr389, p70S6 kinase, p70S6 ser371, S6 kinase ser240/244, Akt, Akt ser473, Akt Thr308, 4EBP1 ser65, 4EBP1 ser70, and 4EBP1 Thr37/46 (Cell Signaling Technology, Danvers, Mass.). A negative control slide is incubated with antibody diluent. Secondary antibody can be goat anti-rabbit IgG H+L (1:5000) (Vector Labs, Burlingame, Calif.).
(§3) Each array is scanned, spot intensity analyzed, data normalized, and a standardized, single data value can be generated for each sample on the array (Image Quant v5.2, GE Healthcare, Piscataway, N.J.) or MicroVigene v2.8, Vigene Tech, Billerica, Mass.). Spot intensity is integrated over a fixed area. Local area background intensity is calculated for each spot with the unprinted adjacent slide background. […] The Ward method for two-way hierarchical clustering can be performed using JMP v5.0 (SAS Institute, Cary N.C.). Wilcoxon two-sample rank sum test can be used to compare values between two groups. P values less than 0.05 are considered significant. When one cannot assume a normal distribution of the variables, non-parametric methods are used. Kaplan-Meier (log-rank) survival estimates for univariate survival analysis can be used.
(§4) Briefly, tumor tissues from gastrinoma/liver, mesothelioma and parathyroid tumors were sampled by five needle passes and placed into the preservatives listed in Table 5. […] Immediate lysis and denaturation of the cellular proteins were accomplished by standard Pierce Tissue Protein Extraction Buffer (T-PER), with additional SDS, denaturing reagents, and detergents. The cell samples were stored 24 h in the listed preservatives at 4° C. and then the listed phosphoprotein endpoints were measured. […] Some values dropped to zero while others are markedly elevated compared to the freshly lysed cell baseline. […] They were unable to stabilize the phosphorylation state of key signal proteins over a storage period of 24 hours, which is a typical time delay for cell or tissue shipment. Numbers in the table are relative normalized intensity values using the RPA technology described herein.

AKT ser473 = system: AKT ser473
Experimental: as §1, §2, §3, §4

CC3 Asp175 = system: CC3 Asp175
Experimental: as §1, §2, §3, §4

CREB ser133 = system: CREB ser133
Experimental: as §1, §2, §3, §4

EGFR Y1148 = system: EGFR Y1148
Experimental: as §1, §2, §3, §4

ERK T202/Y204 = system: ERK T202/Y204
Experimental: as §1, §2, §3, §4

GSK3ab ser21/9 = system: GSK3ab ser21/9
Experimental: as §1, §2, §3, §4

IKappa-Ba ser32 = system: IKappa-Ba ser32
Experimental: as §1, §2, §3, §4

IRS-1 ser612 = system: IRS-1 ser612
Experimental: as §1, §2, §3, §4

p38 T180/182 = system: p38 T180/182
Experimental: as §1, §2, §3, §4

[1] = Gastrinoma/liver tumor, Lysis Buffer = frozen immediately after lysis
[2] = Parathyroid tumor, Lysis Buffer = frozen immediately after lysis

SMILES | AKT Thr308 Normalized data (AKT Thr308; [1]) | AKT Thr308 Normalized data (AKT Thr308; Mesothelioma) | AKT Thr308 Normalized data (AKT Thr308; [2]) | AKT ser473 Normalized data (AKT ser473; [1]) | AKT ser473 Normalized data (AKT ser473; Mesothelioma) | AKT ser473 Normalized data (AKT ser473; [2]) | CC3 Asp175 Normalized data (CC3 Asp175; [1]) | CC3 Asp175 Normalized data (CC3 Asp175; Mesothelioma) | CC3 Asp175 Normalized data (CC3 Asp175; [2]) | CREBser133 Normalized data (CREB ser133; [1]) | CREBser133 Normalized data (CREB ser133; Mesothelioma) | CREBser133 Normalized data (CREB ser133; [2]) | EGFR Y1148 Normalized data (EGFR Y1148; [1]) | EGFR Y1148 Normalized data (EGFR Y1148; Mesothelioma) | EGFR Y1148 Normalized data (EGFR Y1148; [2]) | ERK T202/Y204 Normalized data (ERK T202/Y204; [1]) | ERK T202/Y204 Normalized data (ERK T202/Y204; Mesothelioma) | ERK T202/Y204 Normalized data (ERK T202/Y204; [2]) | GSK3ab ser21/9 Normalized data (GSK3ab ser21/9; [1]) | GSK3ab ser21/9 Normalized data (GSK3ab ser21/9; Mesothelioma) | further results
[Cl-].[Na+] [0.9% saline, sodium chloride] | 9.73 | 8.97 | 0.00 | 3.76 | 9.78 | 1.84 | 14.57 | 10.85 | 5.46 | 24.09 | 17.20 | 5.35 | 39.76 | 24.62 | 6.57 | 10.75 | 7.72 | 0.00 | 12.25 | 9.46 | GSK3ab ser21/9 Normalized data (GSK3ab ser21/9; [2]): 0.00; IKappa-Ba ser32 Normalized data (IKappa-Ba ser32; [1]): 29.64; IKappa-Ba ser32 Normalized data (IKappa-Ba ser32; Mesothelioma): 16.87; IKappa-Ba ser32 Normalized data (IKappa-Ba ser32; [2]): 1.87; IRS-1 ser612 Normalized data (IRS-1 ser612; [1]): 4.82; IRS-1 ser612 Normalized data (IRS-1 ser612; Mesothelioma): 2.34; IRS-1 ser612 Normalized data (IRS-1 ser612; [2]): 0.00; p38 T180/182 Normalized data (p38 T180/182; [1]): 33.41; p38 T180/182 Normalized data (p38 T180/182; Mesothelioma): 26.34; p38 T180/182 Normalized data (p38 T180/182; [2]): 4.79
OC[C@H]1O[C@H](O[C@H]2O[C@H](CO)[C@@H](O)[C@H](O)[C@H]2O)[C@H](O)[C@@H](O)[C@@H]1O [15% trehalose, Trehalose] | 19.93 | 0.95 | 5.38 | 0.00 | 7.86 | 0.26 | 11.19 | 6.82 | 7.76 | 55.11 | 10.01 | 21.50 | 95.78 | 21.03 | 26.55 | 17.01 | 0.00 | 9.34 | 32.18 | 7.80 | GSK3ab ser21/9 Normalized data (GSK3ab ser21/9; [2]): 10.36; IKappa-Ba ser32 Normalized data (IKappa-Ba ser32; [1]): 32.99; IKappa-Ba ser32 Normalized data (IKappa-Ba ser32; Mesothelioma): 13.29; IKappa-Ba ser32 Normalized data (IKappa-Ba ser32; [2]): 24.12; IRS-1 ser612 Normalized data (IRS-1 ser612; [1]): 25.51; IRS-1 ser612 Normalized data (IRS-1 ser612; Mesothelioma): 0.00; IRS-1 ser612 Normalized data (IRS-1 ser612; [2]): 0.05; p38 T180/182 Normalized data (p38 T180/182; [1]): 36.95; p38 T180/182 Normalized data (p38 T180/182; Mesothelioma): 7.39; p38 T180/182 Normalized data (p38 T180/182; [2]): 30.53
OC[C@H]1O[C@@](CO)(O[C@H]2O[C@H](CO)[C@@H](O)[C@H](O)[C@H]2O)[C@@H](O)[C@@H]1O [30% sucrose, sucrose] | 42.04 | 12.13 | 0.00 | 16.16 | 19.36 | 3.27 | 61.02 | 17.90 | 2.23 | 69.03 | 22.82 | 2.09 | 65.97 | 22.84 | 6.14 | 48.68 | 15.67 | 1.15 | 37.27 | 3.12 | GSK3ab ser21/9 Normalized data (GSK3ab ser21/9; [2]): 0.00; IKappa-Ba ser32 Normalized data (IKappa-Ba ser32; [1]): 69.82; IKappa-Ba ser32 Normalized data (IKappa-Ba ser32; Mesothelioma): 0.00; IKappa-Ba ser32 Normalized data (IKappa-Ba ser32; [2]): 0.33; IRS-1 ser612 Normalized data (IRS-1 ser612; [1]): 31.46; IRS-1 ser612 Normalized data (IRS-1 ser612; Mesothelioma): 1.84; IRS-1 ser612 Normalized data (IRS-1 ser612; [2]): 0.00; p38 T180/182 Normalized data (p38 T180/182; [1]): 63.91; p38 T180/182 Normalized data (p38 T180/182; Mesothelioma): 28.71; p38 T180/182 Normalized data (p38 T180/182; [2]): 1.15
CC(C)=O [Acetone] | 25.45 | 30.05 | 21.93 | 4.56 | 27.53 | 13.12 | 38.23 | 26.75 | 29.46 | 91.79 | 83.10 | 83.74 | 65.10 | 49.89 | 81.36 | 46.15 | 55.31 | 77.97 | 35.47 | 55.72 | GSK3ab ser21/9 Normalized data (GSK3ab ser21/9; [2]): 123.00; IKappa-Ba ser32 Normalized data (IKappa-Ba ser32; [1]): 48.91; IKappa-Ba ser32 Normalized data (IKappa-Ba ser32; Mesothelioma): 36.08; IKappa-Ba ser32 Normalized data (IKappa-Ba ser32; [2]): 49.65; IRS-1 ser612 Normalized data (IRS-1 ser612; [1]): 33.10; IRS-1 ser612 Normalized data (IRS-1 ser612; Mesothelioma): 10.72; IRS-1 ser612 Normalized data (IRS-1 ser612; [2]): 40.55; p38 T180/182 Normalized data (p38 T180/182; [1]): 77.58; p38 T180/182 Normalized data (p38 T180/182; Mesothelioma): 87.57; p38 T180/182 Normalized data (p38 T180/182; [2]): 72.96
